Results: US6861448B2, “NAD synthetase inhibitors and uses thereof” (priority 1998, dated 2005)
pIC50: −log10 of the molar value.

The compounds below were run against NAD synthetase (Bacillus subtilis, UniProt P08164) (assay: NAD synthetase coupled enzyme assay). Details: not given.
Format: biochemical
From the text: This Example illustrates the NAD synthetase enzyme inhibiting activity of some compounds of the present invention. [drawing 48] The coupled assay—production of NAD was monitored through conversion to NADH by alcohol dehydrogenase. [NADH] was monitored by 2 parallel methods: the change in absorbance at 340 nm, and fluorescence at 460 nm (excitation 320 nm). […] Controls were included for determining inhibitor background, precipitation, and ADH inhibition.

Sequence of NAD synthetase (P08164 whole entry): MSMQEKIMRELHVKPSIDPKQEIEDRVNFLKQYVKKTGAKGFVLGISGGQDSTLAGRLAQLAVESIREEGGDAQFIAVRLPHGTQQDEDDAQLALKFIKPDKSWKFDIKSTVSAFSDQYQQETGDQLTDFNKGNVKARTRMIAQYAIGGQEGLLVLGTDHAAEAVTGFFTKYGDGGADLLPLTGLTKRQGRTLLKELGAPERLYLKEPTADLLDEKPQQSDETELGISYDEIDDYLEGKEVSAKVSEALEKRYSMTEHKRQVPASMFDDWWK

| Compound | pIC50 |
| --- | --- |
| N=C(N)N[C@H](COCCCCCCCCOc1ccc(OCc2ccccc2)cc1)Cc1ccccc1 [Compound 1679] | 4.98 |

Same assay, conditions: NAD synthetase 2.0 μg/mL; 0.1 mM NaAD; 0.2 mM ATP; pH 8.5

| Compound | pIC50 |
| --- | --- |
| N=C(N)N[C@@H](Cc1ccccc1)C(=O)NCCCCCCCCOc1ccc(OCc2ccccc2)cc1 [Compound 1681] | 4.89 |
| C[N+](C)(C)C(Cc1ccccc1)C(=O)OCCCCCCCCOc1ccc(OCc2ccccc2Cl)cc1 (stereo not shown) [Compound 1390] | 4.85 |
| C[N+]1([C@@H](Cc2ccccc2)C(=O)OCCCCCCCCOc2ccc(OCc3ccccc3)cc2)CCCC1 [Compound 1336] | 4.71 |
| C[N+](C)(C)c1ccc(CC(=O)OCCCCCCCCn2ccc3cccc(OCc4ccccc4)c32)cc1 [Compound 1127] | 4.64 |
| C[N+](C)(C)c1ccc(CC(=O)OCCCCCCCCOc2cccc(OCc3ccccc3)c2)cc1 [Compound 1169] | 4.44 |
| C[N+](C)(C)c1ccc(CC(=O)OCCCCCCCCOc2ccc(OCc3ccccc3Cl)cc2)cc1 [Compound 1396] | 4.82 |
| CCC[N+]1([C@@H](Cc2ccccc2)C(=O)NCCCCCCCCOc2ccc(OCc3ccccc3)cc2)CCCC1 [Compound 1502] | 4.45 |
| C[N+](C)(C)C(Cc1ccccc1)C(=O)OCCCCCCCCOc1ccc(OC(=O)c2ccc(C#N)cc2)cc1 (stereo not shown) [Compound 1479] | 4.73 |
| COc1cccc(COc2ccc(OCCCCCCCCOC(=O)C(Cc3ccccc3)[N+](C)(C)C)cc2)c1 (stereo not shown) [Compound 1388] | 4.84 |
| C[N+](C)(C)C(Cc1ccccc1)C(=O)NCCCCCCCCOc1ccc(OC(=O)c2cc(Cl)cc(Cl)c2Cl)cc1 (stereo not shown) [Compound 1615] | 4.65 |
| C[N+](C)(C)C(Cc1ccccc1)C(=O)OCCCCCCCCOc1ccc(OCc2ccccc2)cc1 (stereo not shown) [Compound 1338] | 4.64 |
| C[N+](C)(C)C(Cc1ccccc1)C(=O)NCCCCCCCCOc1ccc(OC(=O)c2cc(F)ccc2F)cc1 (stereo not shown) [Compound 1611] | 4.63 |
| COc1ccc(COc2ccc(OCCCCCCCCOC(=O)C(Cc3ccccc3)[N+](C)(C)C)cc2)cc1 (stereo not shown) [Compound 1389] | 4.34 |
| C[N+](C)(C)C(Cc1ccccc1)C(=O)NCCCCCCCCOc1ccc(OC(=O)c2cccc(F)c2F)cc1 (stereo not shown) [Compound 1609] | 4.68 |
| C[N+](C)(C)C(Cc1ccccc1)C(=O)NCCCCCCCCOc1ccc(OC(=O)c2cc(Cl)cc(Cl)c2)cc1 (stereo not shown) [Compound 1608] | 4.58 |
| C[N+](C)(C)c1ccc(CC(=O)NCCCCCCCCOc2ccc(OC(=O)c3cccc(Cl)c3)cc2)cc1 [Compound 1623] | 4.47 |
| C[N+](C)(C)C(Cc1ccccc1)C(=O)NCCCCCCCCOc1ccc(OC(=O)c2cc(F)c(F)cc2F)cc1 (stereo not shown) [Compound 1619] | 4.65 |
| C[N+](C)(C)c1ccc(CC(=O)NCCCCCCCCOc2ccc(OC(=O)c3ccc(Cl)cc3)cc2)cc1 [Compound 1624] | 4.51 |
| C[N+](C)(C)C(Cc1ccccc1)C(=O)OCCCCCCCCOc1ccc(OC(=O)c2ccc(S(N)(=O)=O)cc2)cc1 (stereo not shown) [Compound 1485] | 4.46 |
| CC(=O)Oc1ccc(C(=O)Oc2ccc(OCCCCCCCCNC(=O)C(Cc3ccccc3)[N+](C)(C)C)cc2)cc1 (stereo not shown) [Compound 1599] | 4.36 |
| CN(CCCCCCCCOc1ccc(OCc2ccccc2)cc1)C[C@H](Cc1ccccc1)[N+](C)(C)C [Compound 1499] | 4.57 |
| C[n+]1cccc(C(=O)NCCCCCCCCOc2ccc(OC(=O)c3ccc(Cl)c(Cl)c3)cc2)c1 [Compound 1665] | 4.71 |

| Compound | pIC50 |
| --- | --- |
| C[N+](C)(C)c1ccc(CC(=O)NCCCCCCCCOc2ccc(OC(=O)c3cc(Cl)ccc3Cl)cc2)cc1 [Compound 1634] | 4.67 |
| CC[N+]1([C@@H](Cc2ccccc2)C(=O)OCCCCCCCCOc2ccc(OCc3ccccc3)cc2)CCCC1 [Compound 1442] | 4.67 |
| C[N+](C)(C)C(Cc1ccccc1)C(=O)NCCCCCCCCOc1ccc(OC(=O)c2ccc(Cl)cc2Cl)cc1 (stereo not shown) [Compound 1604] | 4.68 |
| C[N+](C)(C)C(Cc1ccccc1)C(=O)OCCCCCCCCOc1ccc2c(c1)C(=O)CC(c1ccccc1)O2 (mixture of isomers) [Compound 1370] | 4.77 |
| C[N+](C)(C)C(Cc1ccc([N+](=O)[O-])cc1)C(=O)OCCCCCCCCOc1ccc(OCc2ccccc2)cc1 (stereo not shown) [Compound 1405] | 4.73 |
| C[N+](C)(C)c1ccc(CC(=O)OCCCCCCCCCCCOc2ccc(OCc3ccccc3)cc2)cc1 [Compound 1323] | 4.32 |
| C[N+](C)(C)c1ccc(CC(=O)NCCCCCCCCOc2ccc(OC(=O)c3cc(Cl)cc(Cl)c3)cc2)cc1 [Compound 1637] | 4.63 |
| C[n+]1cccc(C(=O)NCCCCCCCCOc2ccc3c(c2)C(=O)CC(c2ccccc2)O3)c1 (stereo not shown) [Compound 1448] | 4.51 |
| C[N+](C)(C)C(Cc1ccccc1)C(=O)NCCCCCCCCOc1ccc(OC(=O)c2ccccc2F)cc1 (stereo not shown) [Compound 1596] | 4.55 |
| C[N+](C)(C)C(Cc1ccccc1)C(=O)NCCCCCCCCOc1ccc(OC(=O)c2cc(Cl)ccc2Cl)cc1 (stereo not shown) [Compound 1605] | 4.68 |
| C[N+](C)(C)C(Cc1ccccc1)C(=O)OCCCCCCCn1ccc2cc(OCc3ccccc3)ccc21 (stereo not shown) [Compound 1408] | 4.52 |
| C[N+](C)(C)c1ccc(CC(=O)NCCCCCCCCOc2ccc(OC(=O)c3c(Cl)cccc3Cl)cc2)cc1 [Compound 1635] | 4.45 |
| C[N+](C)(C)c1ccc(CC(=O)OCCCCCCCCOc2ccc(OCc3cccc(Cl)c3)cc2)cc1 [Compound 1397] | 4.77 |
| C[N+](C)(C)c1ccc(CC(=O)NCCCCCCCCOc2ccc(OC(=O)c3ccccc3Cl)cc2)cc1 [Compound 1622] | 4.47 |
| C[N+](C)(C)C(Cc1ccccc1)C(=O)OCCCCCCCCOc1ccc(OC(=O)c2ccc(-n3ccnc3)cc2)cc1 (stereo not shown) [Compound 1486] | 4.42 |
| C[N+](C)(C)C(Cc1ccccc1)C(=O)NCCCCCCCCOc1ccc(OC(=O)c2cccc(Cl)c2Cl)cc1 (stereo not shown) [Compound 1603] | 4.46 |
| C[N+](C)(C)c1ccc(CC(=O)NCCCCCCCCOc2ccc(OC(=O)c3cccc(Cl)c3Cl)cc2)cc1 [Compound 1632] | 4.73 |
| CC(C)Oc1ccc(C(=O)Oc2ccc(OCCCCCCCCOC(=O)C(Cc3ccccc3)[N+](C)(C)C)cc2)cc1 (stereo not shown) [Compound 1477] | 4.85 |
| CC(C)Oc1ccc(C(=O)Oc2ccc(OCCCCCCCCNC(=O)C(Cc3ccccc3)[N+](C)(C)C)cc2)cc1 (stereo not shown) [Compound 1600] | 4.54 |
| C[N+](C)(C)c1ccc(CC(=O)NCCCCCCCCOc2ccc(OC(=O)c3cc(Cl)cc(Cl)c3Cl)cc2)cc1 [Compound 1644] | 4.62 |
| C[N+](C)(C)c1ccc(CC(=O)OCCCCCCCOC(=O)c2ccc(OCc3ccccc3)cc2)cc1 [Compound 1359] | 4.37 |
| C[N+](C)(C)c1ccc(CC(=O)NCCCCCCCCOc2ccc(OCc3cccc(Cl)c3)cc2)cc1 [Compound 1421] | 4.46 |

| Compound | pIC50 |
| --- | --- |
| C[N+](C)(C)C(Cc1ccccc1)C(=O)NCCCCCCCCOc1ccc(OC(=O)c2cccc(F)c2)cc1 (stereo not shown) [Compound 1597] | 4.67 |
| C[N+](C)(C1CCOCC1)[C@@H](Cc1ccccc1)C(=O)OCCCCCCCCOc1ccc(OCc2ccccc2)cc1 [Compound 1358] | 4.33 |
| C[N+](C)(C)c1ccc(CC(=O)NCCCCCCCCOc2ccc(OC(=O)c3ccc(Cl)cc3Cl)cc2)cc1 [Compound 1633] | 4.69 |
| CC(=O)Nc1ccc(C(=O)Oc2ccc(OCCCCCCCCOC(=O)C(Cc3ccccc3)[N+](C)(C)C)cc2)cc1 (stereo not shown) [Compound 1482] | 4.58 |
| C[N+](C)(C)[C@@H](Cc1ccccc1)C(=O)OCCCCCCCCOc1ccc2oc(-c3ccccc3)cc(=O)c2c1 [Compound 1371] | 4.72 |
| C[N+](C)(C)C(Cc1ccccc1)C(=O)NCCCCCCCCOc1ccc(OC(=O)c2cc(F)cc(F)c2)cc1 (stereo not shown) [Compound 1614] | 4.64 |
| C[n+]1cccc(C(=O)NCCCCCCCCOc2ccc(OC(=O)c3cc(F)c(F)c(F)c3)cc2)c1 [Compound 1678] | 4.44 |
| N=C(N)N[C@@H](Cc1ccccc1)C(=O)NCCCCCCCCOc1ccc(OCc2ccccc2)cc1 [Compound 1682] | 4.75 |
| CC(C)(C)OC(=O)C(Cc1cn(CCCCCCCCOc2ccc(OCc3ccccc3)cc2)c2ccccc12)[N+](C)(C)C (stereo not shown) [Compound 1494] | 4.90 |
| C[N+](C)(C)C(Cc1ccccc1)C(=O)NCCCCCCCCOc1ccc(OC(=O)c2c(Cl)cc(Cl)cc2Cl)cc1 (stereo not shown) [Compound 1616] | 4.41 |
| C[n+]1cccc(C(=O)NCCCCCCCCOc2ccc(OC(=O)c3c(Cl)cccc3Cl)cc2)c1 [Compound 1664] | 4.70 |
| CC[N+]1([C@@H](Cc2ccccc2)C(=O)NCCCCCCCCOc2ccc(OCc3ccccc3)cc2)CCCC1 [Compound 1501] | 4.42 |
| C[N+](C)(C)C(Cc1ccccc1)C(=O)NCCCCCCCCOc1ccc(OC(=O)c2ccc(F)cc2F)cc1 (stereo not shown) [Compound 1610] | 4.52 |
| CC(=O)Oc1ccc(C(=O)Oc2ccc(OCCCCCCCCOC(=O)C(Cc3ccccc3)[N+](C)(C)C)cc2)cc1 (stereo not shown) [Compound 1475] | 4.65 |
| C[N+](C)(C)c1ccc(CC(=O)NCCCCCCCCOc2ccc(OC(=O)c3cc(F)c(F)c(F)c3)cc2)cc1 [Compound 1650] | < 4.30 |
| C[N+]1([C@@H](Cc2ccccc2)C(=O)NCCCCCCCCOc2ccc(OCc3ccccc3)cc2)CCCC1 [Compound 1495] | 4.48 |
| C[N+](C)(C)c1ccc(CCCC(=O)OCCCCCCCCOc2ccc(OCc3ccccc3)cc2)cc1 [Compound 1264] | 4.42 |
| C[n+]1cccc(C(=O)NCCCCCCCCOc2ccc(OC(=O)c3ccc(Cl)cc3)cc2)c1 [Compound 1653] | 4.71 |
| C[n+]1cccc(C(=O)NCCCCCCCCOc2ccc(OC(=O)c3cccc(Cl)c3Cl)cc2)c1 [Compound 1661] | 4.63 |
| C[N+](C)(C)c1ccc(CC(=O)OCCCCCCCCCOc2ccc(OCc3ccccc3)cc2)cc1 [Compound 1321] | 4.66 |
| CSc1ccc(C(=O)Oc2ccc(OCCCCCCCCOC(=O)C(Cc3ccccc3)[N+](C)(C)C)cc2)cc1 (stereo not shown) [Compound 1478] | 4.80 |
| C[n+]1cccc(C(=O)NCCCCCCCCOc2ccc(OC(=O)c3cc(Cl)ccc3Cl)cc2)c1 [Compound 1663] | 4.74 |
